According to PMC10384440 (Viruses, 2023):
pIC50: −log10 of the molar value. Read-outs that look alike come from different tables or passages of the source.

Legend:
Assay type in all cases: cell-based
DENV-2 New Guinea = test: Antiviral screening: NS1 protein production in DENV-2 infected Huh-7 cells; conditions: for effect on NS1 production vs viral control: DENV-2 infected Huh-7, 24 h, non-cytotoxic concentrations (between 40 and 100 µM); for NS1 production: DENV-2 infected Huh-7, MOI 1, 24 h, compounds at non-cytotoxic concentrations (between 40 and 100 µM), mycophenolic acid 20 µM, relative to viral control
[1] = Cytotoxic effect on Huh-7 cells, cell viability assay with resazurin; conditions: human
Huh-7 cells = test: as above; conditions: for effect on cell viability at 100 µM: highest concentration evaluated
DENV-2 = test: Viral RNA production of DENV-2 in infected Huh-7 cells (RT-qPCR); conditions: 50 µM; DENV-2 infected Huh-7; normalized using GAPDH; vs viral control
[2] = test system: DENV-2 subgenomic replicon in Huh-7 cells; test: NS5 protein production in Huh-7 DENV-2 replicon cells (ELISA)
[3] = Huh-7 cells, Huh-7 cell line, resazurin, read-out: CC50
[4] = Huh-7, all evaluated concentrations

Compound | effect on NS1 production vs viral control (DENV-2 New Guinea) | CC50 [1, 3] [µM] | NS1 production (DENV-2 New Guinea) | effect on cell viability at the evaluated concentrations (Huh-7 cells; [4]) | also measured
O=C(Nc1ccc2c(c1)OCCO2)[C@@H]1CCCN1C(=O)[C@@H]1Cc2ccccc2CN1 [M76] | reduction in NS1 production | > 100 |  |  | effect on cell viability at 100 µM (Huh-7 cells; Huh-7): no effect was observed
CC1(C)CC(NC(=O)C2Cc3c([nH]c4ccccc34)C3c4ccccc4C(=O)N23)CC(C)(C)N1 (stereo not drawn) [M78] | reduction in NS1 production | 60.8 | ~38% |  | reduction of DENV-2 viral RNA (relative expression, 2^−ΔΔCT) (DENV-2): 1.7 times; viability ([1]; Huh-7 cells, Huh-7, at 12.5, 25, and 50 µM, read-out: cellular viability): ~100%; effect on cell viability at 100 µM (Huh-7 cells; Huh-7): loss of viability; selectivity index (SI), CC50/IC50 ([2]; CC50 Huh-7 / IC50 NS5 production): 2.5; pIC50 ([2]; Dengue virus, DENV2, Huh-7 DENV-2 replicon, dose-response curve, 24 h): 4.61; reduction of NS5 protein expression ([2]; Huh-7 DENV-2 replicon, 50 µM): 70%; NS5 production ([2]; Huh-7 DENV-2 replicon, 50 µM, 24 h, compared to VC (100%)): ~30%
O=C(NCCc1c[nH]c2ccccc12)C1Cc2c([nH]c3ccccc23)C2c3ccccc3C(=O)N12 (stereo not drawn) [MR25] | reduction in NS1 production | 70.6 | ~45% |  | 
O=C(NCCc1ccccc1F)C1Cc2c([nH]c3ccccc23)C2c3ccccc3C(=O)N12 (stereo not drawn) [MR41] | reduction in NS1 production | > 100 |  | no effect was evidenced | 
Cc1ccc(CNC(=O)C2Cc3c([nH]c4ccccc34)C3c4ccccc4C(=O)N23)cc1 (stereo not drawn) [MR94] | except for treatment with MR94 | 46.2 |  |  | 
Cc1cc(C)cc(NC(=O)C(NC(=O)N2CC3CC(C2)c2cccc(=O)n2C3)C(C)C)c1 (stereo not drawn) [R07] | reduction in NS1 production |  |  |  | CC50 ([1]; CC50): > 100 µM; effect on cell viability at the evaluated concentrations (Huh-7 cells): did not reduce cell viability
O=C(NCc1ccccc1)C1Cc2c([nH]c3ccccc23)C2c3ccccc3C(=O)N12 (stereo not drawn) [R32] | reduction in NS1 production | > 100 |  | did not reduce cell viability | 
O=C(NCCc1ccc(Cl)cc1)C1Cc2c([nH]c3ccccc23)C2c3ccccc3C(=O)N12 (stereo not drawn) [R53] |  | 30 |  | reduced cell viability | 
O=C(NCCc1ccccc1)C1Cc2c([nH]c3ccccc23)C2c3ccccc3C(=O)N12 (stereo not drawn) [R55] | reduction in NS1 production | > 100 |  | did not reduce cell viability | 
COc1c(C)c2c(c(O)c1C/C=C(\C)CCC(=O)O)C(=O)OC2 [mycophenolic acid, Mycophenolic acid, reference compound] |  |  | around 63% |  | 
